Measured values as given in patent US20240400986A1, “MEMBRANE BOUND COMPOSITIONS AND METHODS RELATING TO SAME” (FLAGSHIP PIONEERING INNOVATIONS VII, LLC, priority 2021, published 2024).
Counter-ions that a name gives are not always drawn. Like-named read-outs stand apart in the source and are kept apart here.

How the values were obtained:
[1] = tested on: cardiomyocytic cell line derived from human ventricular heart tissue; experiment: Small molecule compound screen of gigasome production in cardiomyocytic monocultures;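 on all read-outs here: gigasomes shed into the culture medium were imaged by confocal microscopy and counted as round particles lacking nuclear signal, extrapolated to the whole well, fold change is relative to DMSO vehicle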; conditions: for fold induction at 0.01 µM / fold induction at 0.1 µM / fold induction at 1 µM / fold induction at 10 µM: Homo sapiens, Cardiomyocyte, read-out: Fold Change of Gigasomes Produced vs. DMSO
[2] = tested on: cardiomyocytic cell line derived from human ventricular heart tissue; experiment: Cell viability in cardiomyocyte compound screen (CellTiter-Glo); assay type: cell-based
Description: Cells were stained with Hoechst 34580, CellTracker Green/CellMask Green Actin and MitoTracker Deep Red to detect nuclear material, cytoplasm/F-actin, and mitochondria, respectively, and cultured in poly-L-lysine-coated 96-well glass bottom plates at 15,800 cells/cm^2 and allowed to adhere overnight. For the screening, a total of 100 randomly organized compounds (TargetMol) were divided in 5 groups. Each group included an untreated condition, a vehicular DMSO control, and a known high-gigasome producing condition to comparatively study gigasome production rates. As a cell death control group, 500 nM Staurosporine was added to induce apoptosis. Cultures were incubated for 24 hours under gigasome inducing conditions at concentrations ranging between 10 nM and 10,000 nM. […] Cells remaining in the 96-well plates were assessed for viability using CellTiter-Glo (Promega).

[3] = tested on: neuronal cell line derived from human neuroblastoma; experiment: Small molecule compound screen of gigasome production in neuronal monocultures; conditions: for Number of Gigasomes Produced: neuronal cells, 24 hours
Description: To quantify and characterize gigasome production using microscopy, while tracking cell viability/phenotype, a multi-readout system was developed that allowed simultaneous analysis of gigasomes harvested from cell culture media supernatants and respective gigasome producing cell viability. […] For the screening, a total of 99 compounds (TargetMol) were divided in 5 groups. Each group included an untreated condition, a vehicular DMSO control, and a known high-gigasome producing condition to comparatively study gigasome production rates. As a cell death control group, 500 nM Staurosporine was added to induce apoptosis. Cultures were incubated for 24 hours under gigasome inducing conditions at concentrations ranging between 10 nM and 10,000 nM. Before the end of the treatment, live neuronal cultures were imaged. The Zeiss ZEN Blue software was used to distribute imaging fields of view (positions) to create an unbiased imaging sample of a well. 5 images were taken using a Zeiss LSM 900 confocal microscope. […] The BioApps ZEN software package was used to perform cell nucleus segmentation and counting. After 24 hours, gigasomes were harvested from the cell culture media by gently removing from the top of each 96-well ⅔ of the total volume without disturbing the cell layer (containing the settled gigasomes) and by adding to each well the same amount of PBS. The wells were washed twice gently, and the gigasome-containing media/PBS wash was transferred into the well of a 384-well glass bottom plate. Cells remaining in the 96-well plates were assessed for viability using CellTiter-Glo (Promega).
For gigasome analysis in 384-well plates, the Zeiss ZEN Blue software was used to distribute positions to create an unbiased imaging sample of a well. 6 images per well were taken using a Zeiss LSM 900 confocal microscope.
A watershed binary segmentation step was performed to separate grouped objects. For each particle in the mask, characteristic parameters of the particle were calculated and saved.
Particles of interest were identified by thresholding by area and circularity. […] Circularity, defined by the formula 4pi(area/perimeter^2, was set to be between 0.8 and 1, where a value of 1.0 is a perfect circle, and a value of 0 is a line. Gigasomes were identified from the particles of interest by thresholding by mean nuclear signal. The nuclear signal threshold was set using a value equal to one fourth of a threshold value calculated by the Li auto-threshold algorithm applied to the distribution of all particles of interest. Particles of interest with nuclear signal below this value were considered “negative” for nuclear material and were identified as gigasomes. A sampling factor was calculated to extrapolate the total quantity of a type of object (particles, particles of interest, gigasomes) in the well. The sampling factor was the percentage of the well's area that was imaged. […] The normalized quantity or distribution of objects was described as a quantity or distribution of objects per 1000 cells.

[4] = tested on: neuronal cell line derived from human neuroblastoma; conditions: neuronal cells, 24 hours
Protocol: For the screening, a total of 99 compounds (TargetMol) were divided in 5 groups. Each group included an untreated condition, a vehicular DMSO control, and a known high-gigasome producing condition to comparatively study gigasome production rates. As a cell death control group, 500 nM Staurosporine was added to induce apoptosis. Cultures were incubated for 24 hours under gigasome inducing conditions at concentrations ranging between 10 nM and 10,000 nM. Before the end of the treatment, live neuronal cultures were imaged. The Zeiss ZEN Blue software was used to distribute imaging fields of view (positions) to create an unbiased imaging sample of a well. 5 images were taken using a Zeiss LSM 900 confocal microscope. […] The BioApps ZEN software package was used to perform cell nucleus segmentation and counting. After 24 hours, gigasomes were harvested from the cell culture media by gently removing from the top of each 96-well ⅔ of the total volume without disturbing the cell layer (containing the settled gigasomes) and by adding to each well the same amount of PBS. […] Cells remaining in the 96-well plates were assessed for viability using CellTiter-Glo (Promega).

[5] = Table 23 (down-regulators), dose 10 nM, cardiomyocytes
[6] = Table 23 (down-regulators), dose 100 nM, cardiomyocytes
[7] = Table 23 (down-regulators), dose 1000 nM, cardiomyocytes
[8] = Table 23 (down-regulators), dose 10000 nM, cardiomyocytes
[9] = Table 22, dose 10 nM, cardiomyocytes, 24 hours
[10] = Table 22, dose 10000 nM, cardiomyocytes, 24 hours
[11] = Table 22, dose 1000 nM, cardiomyocytes, 24 hours
[12] = Table 22, dose 100 nM, cardiomyocytes, 24 hours
[13] = Homo sapiens, 24 h, read-out: Fold Change of Gigasomes Produced vs. DMSO

O=C(O)CC[N+](=O)[O-] [3-Nitropropanoic acid, reference compound]
fold induction at 0.01 µM ([1]; 24 h): 0.75 to 1 | fold induction at 0.1 µM ([1]; 24 h): 0.75 to 1 | fold induction at 1 µM ([1]; 24 h): 0.25 to 0.5 | fold induction at 10 µM ([1]; 24 h): 0.25 to 0.5 | Number of Gigasomes Produced [1, 5]: 105-120 | Number of Gigasomes Produced [1, 6]: 90-105 | Number of Gigasomes Produced [1, 7]: 50-75 | Number of Gigasomes Produced [1, 8]: 35-50 | downregulation of gigasome production ([1]; cardiomyocytes, doses 10-10,000 nM, 24 h): dose-dependent downregulation | Viability [2, 5]: >75% | Viability [2, 6]: 100.0% | Viability [2, 7]: >75% | Viability [2, 8]: 100.0%

CC(N)=NCc1cccc(CN)c1.Cl.Cl [1400W dihydrochloride]
Number of Gigasomes Produced [1, 9]: 150-175 | Number of Gigasomes Produced [1, 5]: >150 | Number of Gigasomes Produced [1, 6]: 90-105 | Number of Gigasomes Produced [1, 7]: 90-105 | Number of Gigasomes Produced [1, 8]: 50-75 | Viability [2, 9]: 100% | Viability [2, 5]: 100.0% | Viability [2, 6]: 100.0% | Viability [2, 7]: 100.0% | Viability [2, 8]: 100.0%

COc1cc(C(C)=O)ccc1O [Apocynin]
fold induction at 0.01 µM ([1]; 24 h): 1 to 1.25 | fold induction at 10 µM ([1]; 24 h): 1 to 1.25 | Number of Gigasomes Produced [1, 9]: 150-175 | Number of Gigasomes Produced [1, 10]: 150-175 | Viability ([2]; human, 24 h, 10 nM): >75% | Viability ([2]; human, 24 h, 10000 nM): >75%

NC(=O)N1c2ccccc2C=Cc2ccccc21 [Carbamazepine]
fold induction at 0.01 µM ([1]; 24 h): 1 to 1.25 | fold induction at 1 µM ([1]; 24 h): 1.25 to 1.5 | fold induction at 10 µM ([1]; 24 h): 1.25 to 1.5 | Number of Gigasomes Produced [1, 9]: 200-225 | Number of Gigasomes Produced [1, 11]: 250-275 | Number of Gigasomes Produced [1, 10]: 250-275 | Viability ([2]; human, 24 h, 10 nM): >75% | Viability ([2]; human, 24 h, 1000 nM): >75% | Viability ([2]; human, 24 h, 10000 nM): >75%

Nc1ncn([C@@H]2O[C@H](CO)[C@@H](O)[C@H]2O)c(=O)n1 [Compound 5-Azacytidine, 5-Azacytidine]
fold induction at 1 µM ([1]; 24 h): 1 to 1.25 | Number of Gigasomes Produced [1, 11]: 150-175 | Viability ([2]; human, 24 h, 1000 nM): 50-75%

O=C(Nc1ccncc1)c1cc([N+](=O)[O-])ccc1Cl [Compound T0070907]
Fold Change of Gigasomes Produced vs. DMSO [1, 9]: 1.0-1.25 | Number of Gigasomes Produced [1, 9]: 150-175 | Fold Change of Gigasomes Produced vs. DMSO [1, 12]: 1.0-1.25 | Number of Gigasomes Produced [1, 12]: 150-175 | Viability [2, 9]: 100% | Viability [2, 12]: 100%

O=S(=O)(c1ccccc1)N(CC(F)(F)F)c1ccc(C(O)(C(F)(F)F)C(F)(F)F)cc1 [Compound T0901317]
fold induction at 10 µM ([1]; 24 h): 1 to 1.25 | Number of Gigasomes Produced [1, 10]: 150-175 | Viability ([2]; human, 24 h, 10000 nM): >75%

Cn1c(=O)n(-c2ccc(C(C)(C)C#N)cc2)c2c3cc(-c4cnc5ccccc5c4)ccc3ncc21 [Dactolisib]
fold induction at 10 µM ([1]; 24 h): 1.25 to 1.5 | Number of Gigasomes Produced [1, 10]: 150-175 | Viability ([2]; human, 24 h, 10000 nM): >75%

CN(C)CCCSC(=N)N [Dimaprit dihydrochloride]
fold induction at 0.01 µM ([1]; 24 h): 0.75 to 1 | fold induction at 0.1 µM ([1]; 24 h): 0.75 to 1 | fold induction at 1 µM ([1]; 24 h): 0.5 to 0.75 | fold induction at 10 µM ([1]; 24 h): 0.25 to 0.5 | Number of Gigasomes Produced [1, 5]: 90-105 | Number of Gigasomes Produced [1, 6]: 75-90 | Number of Gigasomes Produced [1, 7]: 50-75 | Number of Gigasomes Produced [1, 8]: 50-75 | Viability [2, 5]: 100.0% | Viability [2, 6]: 100.0% | Viability [2, 7]: >75% | Viability [2, 8]: 100.0%

Cc1cc(C)c(S(=O)(=O)N(Cc2ccc(-c3cccc(S(C)(=O)=O)c3)cc2)Cc2ccc(C(F)(F)F)o2)c(C)c1 [GSK2033]
fold induction at 10 µM ([1]; 24 h): 1.25 to 1.5 | Number of Gigasomes Produced [1, 10]: 150-175 | Viability ([2]; human, 24 h, 10000 nM): 100%

NC1=N[C@@]2(c3cc(NC(=O)c4ccc(F)cn4)ccc3F)COC[C@H]2CS1 [LY288672, reference compound]
fold induction at 1 µM ([1]; 24 h): 1.5 to 1.75 | Number of Gigasomes Produced [1, 11]: 175-200 | Viability ([2]; human, 24 h, 1000 nM): >75%

COC(=O)C=Cc1ccccc1 [Methyl cinnamate]
fold induction at 1 µM ([1]; 24 h): 1.25 to 1.5 | Number of Gigasomes Produced [1, 11]: 150-175 | Viability ([2]; human, 24 h, 1000 nM): >75%

CC(=O)c1cc2c(o1)C(=O)c1ccccc1C2=O [Napabucasin]
fold induction at 0.01 µM [3, 13]: 1 to 1.25 | fold induction at 0.1 µM [3, 13]: 1.5 to 1.75 | Number of Gigasomes Produced ([3]; dose 10 nM): 35-45 | Number of Gigasomes Produced ([3]; dose 100 nM): 45-55 | Viability ([4]; dose 10 nM): 100% | Viability ([4]; dose 100 nM): 100%
